# Patent US10647679B2, “N-methyl-D-aspartate receptor (NMDAR) potentiators, pharmaceutical compositions, and uses related thereto” (Emory University, priority 2015, dated 2020)
# Like-named read-outs stand apart in the source and are kept apart here.
# Experiments:
# Type in all cases: cell-based
# [1] = target: T1, recombinant rat GluN1/GluN2C (Rattus norvegicus, UniProt Q00961); test: Two-electrode voltage-clamp (TEVC) recordings in Xenopus laevis oocytes, GluN1/GluN2C; details: for I30 μM/Icontrol (mean ± SEM, %) GluN2C: 30 μM compound, Tables 5-7
# T1 construct: expressed in transfected cells; host or cells: Xenopus laevis oocytes (Ecocyte) injected with in vitro transcribed cRNA
# Description: (§1) Data are from between 3-26 oocytes from 2-5 frogs for each compound and receptor tested.
# (§2) Two-electrode voltage-clamp recordings were performed in Xenopus laevis oocytes (Ecocyte) expressing recombinant rat GluN1/GluN2A, GluN1/GluN2B, GluN1/GluN2C, GluN1/GluN2D. cRNA was transcribed in vitro (Ambion), diluted with nuclease free water, and injected at a ratio of 1:2 GluN1:GluN2 (5-10 ng total cRNA). The oocytes were kept in Barth's solution comprised of (in mM) 88 NaCl, 5 Tris-HCl, 2.4 NaHCO3, 1 KCl, 0.84 MgSO4, 0.41 CaCl2, and 0.33 Ca(NO3)2 at pH 7.4 at 15-17° C. for two to five days before experiments. Oocytes were placed into a perfusion chamber and continually washed with recording solution containing (in mM) 90 NaCl, 1.0 KCl, 0.5 BaCl2, 0.005 EDTA, and 10 HEPES at pH 7.4 (23° C.). Voltage clamp recordings were conducted at a holding potential of −40 mV. All compounds were made as 20 mM stock solutions in DMSO and dissolved to reach the final concentration in recording solution. Final DMSO content was 0.05-0.5% (vol/vol). Some oocytes expressing GluN1/GluN2A were pretreated with […] BAPTA-AM for 10 minutes or injected with […] of 2 mM K-BAPTA to prevent gradual run-up of the current response.
# [2] = target: T2, recombinant rat GluN1/GluN2D (Rattus norvegicus, UniProt Q62645); test: Two-electrode voltage-clamp (TEVC) recordings in Xenopus laevis oocytes, GluN1/GluN2D; details: for I30 μM/Icontrol (mean ± SEM, %) GluN2D: 30 μM compound, Tables 5-7
# T2 construct: expressed in transfected cells; host or cells: Xenopus laevis oocytes (Ecocyte) injected with in vitro transcribed cRNA
# Description: as §1, §2
# [3] = target: T3, recombinant rat GluN1/GluN2B (Rattus norvegicus, UniProt Q00960); test: Two-electrode voltage-clamp (TEVC) recordings in Xenopus laevis oocytes, GluN1/GluN2B; details: for I30 μM/Icontrol (mean ± SEM, %) GluN2B: 30 μM compound, Tables 5-7
# T3 construct: expressed in transfected cells; host or cells: Xenopus laevis oocytes (Ecocyte) injected with in vitro transcribed cRNA
# Description: as §1, §2
# [4] = target: T4, recombinant rat GluN1/GluN2C (Rattus norvegicus, UniProt P35439+Q00961); test: Two-electrode voltage-clamp (TEVC) recordings in Xenopus laevis oocytes, GluN1/GluN2C
# T4 construct: expressed in transfected cells; host or cells: Xenopus laevis oocytes (Ecocyte) injected with in vitro transcribed cRNA
# Description: as §1, §2
# [5] = target: T5, recombinant rat GluN1/GluN2B (Rattus norvegicus, UniProt P35439+Q00960); test: Two-electrode voltage-clamp (TEVC) recordings in Xenopus laevis oocytes, GluN1/GluN2B
# T5 construct: expressed in transfected cells; host or cells: Xenopus laevis oocytes (Ecocyte) injected with in vitro transcribed cRNA
# Description: as §1, §2
# [6] = untitled tables after drawing 25 and drawing 36, read-out: EC50 (μM) GluN2C
# [7] = untitled tables after drawing 25 and drawing 36, read-out: EC50 (μM) GluN2D
# [8] = maximum potentiation, response without modulator = 100%, read-out: GluN2C EC50 (μM)/Max %: Max %
# [9] = maximum potentiation, response without modulator = 100%, read-out: GluN2B EC50 (μM)/Max %: Max %
# [10] = maximum potentiation, response without modulator = 100%
# [11] = percentage of the initial glutamate (100 μM) and glycine (30 μM) current
# [12] = fitted when potentiation at 30 μM exceeded 120%, Tables 3, 5-7, read-out: EC50 (max.) (μM %) GluN2B: fitted EC50
# [13] = read-out: EC50 & Max Effect: 2C
# T2 sequence (Q62645 28-1323, other chains not shown): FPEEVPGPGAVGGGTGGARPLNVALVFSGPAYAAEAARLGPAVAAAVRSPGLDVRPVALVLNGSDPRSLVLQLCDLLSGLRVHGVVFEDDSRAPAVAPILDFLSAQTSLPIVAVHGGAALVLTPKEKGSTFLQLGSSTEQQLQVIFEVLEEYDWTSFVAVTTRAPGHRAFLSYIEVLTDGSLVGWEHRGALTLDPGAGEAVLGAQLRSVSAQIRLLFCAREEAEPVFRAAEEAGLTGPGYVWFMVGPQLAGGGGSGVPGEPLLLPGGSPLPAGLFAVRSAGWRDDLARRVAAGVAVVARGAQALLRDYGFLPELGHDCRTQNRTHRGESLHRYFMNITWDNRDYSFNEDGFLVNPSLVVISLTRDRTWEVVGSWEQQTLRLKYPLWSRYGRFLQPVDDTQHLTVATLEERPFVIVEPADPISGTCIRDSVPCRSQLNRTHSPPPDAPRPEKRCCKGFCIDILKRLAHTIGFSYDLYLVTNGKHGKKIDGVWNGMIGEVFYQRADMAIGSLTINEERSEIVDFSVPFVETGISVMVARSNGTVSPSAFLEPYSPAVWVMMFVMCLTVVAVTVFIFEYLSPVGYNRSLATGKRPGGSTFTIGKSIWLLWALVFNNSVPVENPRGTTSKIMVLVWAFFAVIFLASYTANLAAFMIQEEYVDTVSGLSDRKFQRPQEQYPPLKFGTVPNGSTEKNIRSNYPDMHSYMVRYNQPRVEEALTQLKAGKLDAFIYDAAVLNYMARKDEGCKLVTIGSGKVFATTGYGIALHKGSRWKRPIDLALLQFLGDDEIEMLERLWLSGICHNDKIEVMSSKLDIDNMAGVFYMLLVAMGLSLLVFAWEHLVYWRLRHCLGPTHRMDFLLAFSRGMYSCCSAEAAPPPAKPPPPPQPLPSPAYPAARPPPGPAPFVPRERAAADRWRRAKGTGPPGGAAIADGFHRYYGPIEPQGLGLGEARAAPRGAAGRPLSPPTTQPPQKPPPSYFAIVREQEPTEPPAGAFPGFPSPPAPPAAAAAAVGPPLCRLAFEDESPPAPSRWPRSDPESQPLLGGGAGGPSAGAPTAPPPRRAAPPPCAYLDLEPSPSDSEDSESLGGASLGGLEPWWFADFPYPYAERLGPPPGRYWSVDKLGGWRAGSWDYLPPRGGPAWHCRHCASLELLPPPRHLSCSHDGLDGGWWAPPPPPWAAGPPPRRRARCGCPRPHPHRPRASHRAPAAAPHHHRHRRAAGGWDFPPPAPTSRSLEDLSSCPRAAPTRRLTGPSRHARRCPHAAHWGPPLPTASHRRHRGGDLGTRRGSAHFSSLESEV
# T5 sequence (Q00960 27-1482, other chains not shown): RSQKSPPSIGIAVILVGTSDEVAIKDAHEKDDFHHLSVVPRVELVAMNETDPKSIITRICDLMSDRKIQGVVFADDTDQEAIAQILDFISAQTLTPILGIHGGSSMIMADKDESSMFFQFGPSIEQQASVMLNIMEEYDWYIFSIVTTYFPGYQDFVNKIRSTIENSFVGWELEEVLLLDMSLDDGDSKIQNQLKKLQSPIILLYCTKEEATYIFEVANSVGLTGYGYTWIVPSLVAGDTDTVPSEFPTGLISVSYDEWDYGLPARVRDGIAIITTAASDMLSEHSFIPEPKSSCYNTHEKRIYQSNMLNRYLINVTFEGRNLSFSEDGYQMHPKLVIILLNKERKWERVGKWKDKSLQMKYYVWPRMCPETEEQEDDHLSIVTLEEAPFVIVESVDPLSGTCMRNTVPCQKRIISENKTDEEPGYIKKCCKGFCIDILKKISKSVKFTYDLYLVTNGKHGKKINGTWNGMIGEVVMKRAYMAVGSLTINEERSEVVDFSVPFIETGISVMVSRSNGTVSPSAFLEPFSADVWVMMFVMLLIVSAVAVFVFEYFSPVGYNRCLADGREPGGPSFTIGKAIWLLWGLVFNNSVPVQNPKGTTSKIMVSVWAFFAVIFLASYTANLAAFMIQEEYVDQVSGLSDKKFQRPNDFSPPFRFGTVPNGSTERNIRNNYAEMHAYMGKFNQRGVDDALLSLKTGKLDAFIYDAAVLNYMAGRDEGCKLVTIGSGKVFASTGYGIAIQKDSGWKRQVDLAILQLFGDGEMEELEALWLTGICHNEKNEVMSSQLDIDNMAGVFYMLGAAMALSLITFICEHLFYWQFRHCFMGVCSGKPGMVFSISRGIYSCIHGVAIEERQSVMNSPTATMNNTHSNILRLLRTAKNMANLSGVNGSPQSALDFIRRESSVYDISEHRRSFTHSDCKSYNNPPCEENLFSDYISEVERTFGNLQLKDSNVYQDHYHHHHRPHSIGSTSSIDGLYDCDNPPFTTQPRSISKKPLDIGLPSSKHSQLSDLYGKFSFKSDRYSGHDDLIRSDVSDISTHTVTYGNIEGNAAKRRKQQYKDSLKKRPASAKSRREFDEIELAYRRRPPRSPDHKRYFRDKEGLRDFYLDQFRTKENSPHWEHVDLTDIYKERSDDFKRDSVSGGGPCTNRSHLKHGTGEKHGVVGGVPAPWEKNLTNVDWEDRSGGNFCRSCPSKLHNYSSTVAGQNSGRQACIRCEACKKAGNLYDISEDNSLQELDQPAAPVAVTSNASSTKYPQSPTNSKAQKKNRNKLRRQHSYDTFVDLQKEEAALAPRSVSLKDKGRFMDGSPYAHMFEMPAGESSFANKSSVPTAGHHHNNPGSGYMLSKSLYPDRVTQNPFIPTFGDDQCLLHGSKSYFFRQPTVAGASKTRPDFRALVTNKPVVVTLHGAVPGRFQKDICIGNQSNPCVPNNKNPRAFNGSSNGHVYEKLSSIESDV
# T3 sequence (Q00960 27-1482, other chains not shown): as above
smiles,measurement,setting,value
COc1ccc(OCC2c3ccc(OC)cc3CCN2C(=O)C=CC(F)(F)F)cc1 (stereo not shown) [1180-253],EC50,[1]; [6],7 µM
same,EC50,[2]; [7],9 µM
same,GluN2B response % at 30 µM,[3],101% at 30
COc1ccc(OCC2c3ccc(OC)cc3CCN2C(=O)c2cnc(Cl)s2)cc1 (stereo not shown) [1180-241],GluN2C response % at 30 µM,[1],114% at 30
same,GluN2D response % at 30 µM,[2],131% at 30
same,GluN2B response % at 30 µM,[3],88% at 30
CCOc1ccc(OC[C@H]2c3ccc(OC(C)C)cc3CCN2C(=O)c2cccc(F)c2)cc1 [(R)-(+)-1180-87],"I30 μM/Icontrol (mean ± SEM, %) GluN2C",[1],103%
same,"I30 μM/Icontrol (mean ± SEM, %) GluN2D",[2],86%
same,"I30 μM/Icontrol (mean ± SEM, %) GluN2B",[3],103%
CCOc1ccc(OC[C@H]2c3ccc(OC(C)C)cc3CCN2C(=S)c2cccc(F)c2)cc1 [(R)-(+)-1180-154],"I30 μM/Icontrol (mean ± SEM, %) GluN2C",[1],58%
same,"I30 μM/Icontrol (mean ± SEM, %) GluN2D",[2],74%
same,"I30 μM/Icontrol (mean ± SEM, %) GluN2B",[3],95%
CCOc1ccc(OC[C@H]2c3ccc(OC(C)C)cc3CCN2C(=O)c2cccc(C(F)(F)F)c2)cc1 [(R)-(+)-1180-92],"I30 μM/Icontrol (mean ± SEM, %) GluN2C",[1],73%
same,"I30 μM/Icontrol (mean ± SEM, %) GluN2D",[2],75%
same,"I30 μM/Icontrol (mean ± SEM, %) GluN2B",[3],75%
COc1ccc(OCC2c3cc(OC(=O)c4cccc(Cl)c4)c(OC)cc3CCN2C(=O)C=CC(F)(F)F)cc1 (stereo not shown) [1180-330],GluN2C response % at 30 µM,[1],102 at 30%
same,GluN2D response % at 30 µM,[2],96 at 30%
same,GluN2B response % at 30 µM,[3],95 at 30%
CCOCC(=O)N1CCc2cc(OC)ccc2C1COc1ccc(OC)cc1 (stereo not shown) [1180-240],GluN2C response % at 30 µM,[1],115% at 30
same,GluN2D response % at 30 µM,[2],114% at 30
same,GluN2B response % at 30 µM,[3],100% at 30
CCOc1ccc(OCC2c3ccc(OC(C)C)cc3CCN2C(=O)c2cccc(Cl)c2)cc1 (stereo not shown) [1180-83],Emax,[4]; [8],125%
same,Emax,[5]; [9],141%
COc1ccc(OCC2c3ccc(OC(C)C)cc3CCN2C(=S)c2cccc(Cl)c2)cc1 (racemic) [1180-163],"I10 μM/Icontrol (mean ± SEM, %) GluN2C","[1]; 10 μM compound, Table 3",272%
same,EC50 & Max Effect: 2C Max (%),[1]; Tables 11-13,247%
same,EC50,"[1]; Tables 11-13, read-out: EC50 & Max Effect: 2C",0.43 µM
same,EC50,"[1]; fitted when potentiation at 30 μM exceeded 120%, Tables 3, 5-7, read-out: EC50 (max.) (μM %) GluN2C: fitted EC50",0.32 µM
same,GluN2C EC50 (μM)/Max %: Max %,[1]; [10],247%
same,EC50 (max.) (μM %) GluN2C: fitted maximum response,[1]; [11],(273%)
same,"I10 μM/Icontrol (mean ± SEM, %) GluN2D","[2]; 10 μM compound, Table 3",231%
same,EC50 & Max Effect: 2D Max (%),[2]; Tables 11-13,249%
same,EC50,"[2]; Tables 11-13, read-out: EC50 & Max Effect: 2D",0.43 µM
same,EC50,"[2]; fitted when potentiation at 30 μM exceeded 120%, Tables 3, 5-7, read-out: EC50 (max.) (μM %) GluN2D: fitted EC50",0.14 µM
same,GluN2D EC50 (μM)/Max %: Max %,[2]; [10],249%
same,EC50 (max.) (μM %) GluN2D: fitted maximum response,[2]; [11],(260%)
same,"I10 μM/Icontrol (mean ± SEM, %) GluN2B","[3]; 10 μM compound, Table 3",212%
same,EC50,[3]; [12],0.11 µM
same,GluN2B EC50 (μM)/Max %: Max %,[3]; [10],262%
same,EC50 (max.) (μM %) GluN2B: fitted maximum response,[3]; [11],(228%)
CC(C)Oc1ccc(OCC2c3ccc(OC(C)C)cc3CCN2C(=O)c2cccc(Cl)c2)cc1 (stereo not shown) [1180-264],GluN2C response % at 30 µM,[1],127% at
same,GluN2D response % at 30 µM,[2],101% at
same,EC50,"[3]; untitled tables after drawing 25 and drawing 36, read-out: EC50 (μM) GluN2B",4.6 µM
CCOc1ccc(OCC2c3ccc(OC4CCCC4)cc3CCN2C(=S)c2cccc(F)c2)cc1 (racemic) [1180-162],EC50 & Max Effect: 2C Max (%),[1],218%
same,EC50,[1]; [13],0.26 µM
same,EC50 & Max Effect: 2D Max (%),[2],295%
same,EC50,[2]; read-out: EC50 & Max Effect: 2D,0.39 µM
COc1ccc(OCC2c3cc(OC)c(OC)cc3CCN2C(=O)c2cccc(Br)c2)cc1 (stereo not shown) [compound 1391],Emax,"[4]; Tables 11-13, read-out: EC50 & Max Effect: 2C Max (%)",145%
same,EC50 & Max Effect: 2D Max (%),[2]; Tables 11-13,188%
CCOc1ccc(OC[C@@H]2c3ccc(OC(C)C)cc3CCN2C(=S)c2cccc(C(F)(F)F)c2)cc1 [(S)-(−)-1180-168],"I30 μM/Icontrol (mean ± SEM, %) GluN2C",[1],87%
same,"I30 μM/Icontrol (mean ± SEM, %) GluN2D",[2],87%
same,"I30 μM/Icontrol (mean ± SEM, %) GluN2B",[3],95%
COc1ccc(OCC2c3cc(O)c(OC)cc3CCN2C(=O)C=CC(F)(F)F)cc1 (stereo not shown) [1180-328],GluN2C response % at 30 µM,[1],109 at 30%
same,GluN2D response % at 30 µM,[2],120 at 30%
same,GluN2B response % at 30 µM,[3],100 at 30%
"COc1ccc(OCC2c3cc(OC)c(OC)cc3CCN2C(=O)c2cccc(Cl)c2)cc1 (stereo not shown) [1390 (CIQ), reference compound]",EC50 & Max Effect: 2C Max (%),[1],215%
same,EC50,[1]; [13],2.9 µM
same,EC50 & Max Effect: 2D Max (%),[2]; Tables 11-13,205%
COc1ccc(OC[C@H]2c3cc(OC)c(OC)cc3CCN2C(=O)c2cccc(Cl)c2)cc1 [R-1390],EC50 & Max Effect: 2C (μM),[1],Inactive
same,EC50 & Max Effect: 2D (μM),[2],Inactive
CC=CCC(=O)N1CCc2cc(OC)ccc2C1COc1ccc(OC)cc1 (stereo not shown) [1180-235],GluN2C response % at 30 µM,[1],184% at 30
same,GluN2D response % at 30 µM,[2],222% at 30
same,GluN2B response % at 30 µM,[3],103% at 30
COc1ccc(OCC2c3cc(OC)c(OC)cc3CCN2C(=S)c2cccc(Br)c2)cc1 (racemic) [1180-157],EC50 & Max Effect: 2C (μM),[1],Inactive
same,EC50 & Max Effect: 2D (μM),[2],Inactive
CCOc1ccc(OC[C@H]2c3ccc(OC(C)C)cc3CCN2C(=O)c2ccc(Cl)c(Cl)c2)cc1 [(R)-(+)-1180-103],"I30 μM/Icontrol (mean ± SEM, %) GluN2C",[1],92%
same,"I30 μM/Icontrol (mean ± SEM, %) GluN2D",[2],93%
same,"I30 μM/Icontrol (mean ± SEM, %) GluN2B",[3],83%
CCOc1ccc(OCC2c3ccc(OC(C)C)cc3CCN2C(=O)c2cccc(C(F)(F)F)c2)cc1 (stereo not shown) [1180-92],EC50,[5]; [12],2.5 µM
same,Emax,"[5]; percentage of the initial glutamate (100 μM) and glycine (30 μM) current, read-out: EC50 (max.) (μM %) GluN2B: fitted maximum response",122%
COc1ccc(OCC2c3cc(OC)c(OC)cc3CCN2C(=S)c2cccc(Cl)c2)cc1 (racemic) [1180-161],EC50 & Max Effect: 2C (μM),[1],Inactive
same,EC50 & Max Effect: 2D (μM),[2],Inactive
COc1ccc(OCC2c3ccc(OC)cc3CCN2C(=O)C=C(C)C(F)(F)F)cc1 (stereo not shown) [1180-255],EC50,[1]; [6],15 µM
same,EC50,[2]; [7],23 µM
same,GluN2B response % at 30 µM,[3],99% at 30
COc1ccc(OCC2c3ccc(OC)cc3CCN2C(=O)C=CCl)cc1 (stereo not shown) [1180-251],GluN2C response % at 30 µM,[1],99% at 30
same,GluN2D response % at 30 µM,[2],88% at 30
same,GluN2B response % at 30 µM,[3],96% at 30
CCOc1ccc(OCC2c3ccc(OC(C)C)cc3CCN2C(=S)c2ccc(Cl)c(Cl)c2)cc1 (stereo not shown) [1180-155],Emax,[4]; [8],169%
same,Emax,[5]; [9],157%
CCOc1ccc(OCC2c3ccc(OC(C)C)cc3CCN2C(=O)c2cccc(Br)c2)cc1 (stereo not shown) [1180-86],Emax,[4]; [8],132%
same,Emax,[5]; [9],138%
COc1ccc(OCC2c3ccc(OC)cc3CCN2C(=O)c2coc(Cl)n2)cc1 (stereo not shown) [1180-247],EC50,[4]; [6],65 µM
same,GluN2D response % at 100 μM,[2]; at 100 μM,223% at 100
same,GluN2B response % at 30 µM,[3],99% at 30
CCOc1ccc(OCC2c3ccc(OC(C)C)cc3CCN2S(=O)(=O)c2cccc(Cl)c2)cc1 (stereo not shown) [1180-199],GluN2C response % at 10 μM,"[1]; at 10 μM, Table 9",142% at 10 μM
